{
  "source": "patent US20240327791A1",
  "about": "“METHODS OF T CELL PRODUCTION” (Adaptimmune Limited, priority 2021, published 2024)",
  "assay_type_in_all_cases": "cell-based",
  "key": {"iPro T cells [1]": {"system": "iPro T cells", "assay": "Recovery of iPro T cells from freeze/thaw and culture in stage 5 medium", "settings": "pre-treated with UM729 at 1 μM in stage 4 medium; 7 days in stage 5 medium"}, "[2]": {"system": "haematopoietic progenitor cells (iPSC derived CD34+ cells)", "assay": "Viability and proliferation of HPCs / iPro T cells cultured with pyrimidoindole compound (cell counts, NC-250)", "settings": "for viability of cells: UM729 0.25 μM to 1.0 μM (up to 1 μM)", "description": "iPSC cells (HCP1324_c1A12) were differentiated to day 16, using our in-house Proprietary media. HPC (CD34+ cells) were isolated using MACS and a cryopreserved bank of these cells was created for further differentiation into iT-Cells. HPC were then thawed and seeded at 5000 cells per cm^2 in 1 ml of lymphoid progenitor (stage 4; LP) media on the standard SCT's coating (2.5 μL/cm^2). UM729 was added to the culture media in a range of concentrations from 0.25 μM-5 μM. On day 3, 1 mL of LP media with the required concentration of UM729 was added and further demi-media changes were carried out every 3 days, with the required media concentration. Every 14 days cells were removed from culture and counted using NC-250. The cells were then replated on to fresh SCT matrix and UM729 was added to the media at the relevant concentration. Cells were removed from the cultures after 21, 35 and 42 days and phenotyped using the panel in Table 1. At these timepoints cells were either continued on in lymphoid progenitor media with the relevant UM729 concentrations or transferred into T cell maturation conditions. On day 21, 35 and 42 of culture iPro T Cells were seeded onto fresh SCT matrix (2.5 μl/cm^2) at a density of 250,000 cells per cm^2. Cells were cultured in T-Cell maturation media either with or without UM729 (0.25-5 μM), with demi-media changes every 3 days for 2 weeks. After 2 weeks of maturation the cells were counted using the NC-250 and phenotyped by flow cytometry using the panel in Table 1."}, "iPro T cells [3]": {"system": "iPro T cells", "assay": "Expansion of iPro T cells in stage 4 medium", "settings": "UM729 0.25 μM to 1.0 μM in stage 4 medium, up to 42 days", "description": "(§1) HPC were then thawed and seeded at 5000 cells per cm^2 in 1 ml of lymphoid progenitor (stage 4; LP) media on the standard SCT's coating (2.5 μL/cm^2). UM729 was added to the culture media in a range of concentrations from 0.25 μM-5 μM. On day 3, 1 mL of LP media with the required concentration of UM729 was added and further demi-media changes were carried out every 3 days, with the required media concentration. Every 14 days cells were removed from culture and counted using NC-250. The cells were then replated on to fresh SCT matrix and UM729 was added to the media at the relevant concentration. Cells were removed from the cultures after 21, 35 and 42 days and phenotyped using the panel in Table 1. At these timepoints cells were either continued on in lymphoid progenitor media with the relevant UM729 concentrations or transferred into T cell maturation conditions."}, "[4]": {"system": "haematopoietic progenitor cells (iPSC derived CD34+ cells)", "assay": "Flow cytometry phenotyping of HPCs differentiated in lymphoid progenitor (stage 4) medium with pyrimidoindole compound", "description": "as §1, with “conditions. On the day of the assay, the cells were counted, washed twice in FACS Buffer and phenotyped by flow cytometry for T-cell markers.” for “conditions.”"}, "iPro T cells [5]": {"system": "iPro T cells", "assay": "T cell maturation in stage 5 medium after stage 4 pre-treatment, flow cytometry", "settings": "pre-treated with UM729 21 days in stage 4 medium, then 14 days stage 5 medium without UM729", "description": "On day 21, 35 and 42 of culture iPro T Cells were seeded onto fresh SCT matrix (2.5 μl/cm^2) at a density of 250,000 cells per cm^2. Cells were cultured in T-Cell maturation media either with or without UM729 (0.25-5 μM), with demi-media changes every 3 days for 2 weeks. After 2 weeks of maturation the cells were counted using the NC-250 and phenotyped by flow cytometry using the panel in Table 1. On the day of the assay, the cells were counted, washed twice in FACS Buffer and phenotyped by flow cytometry for T-cell markers."}, "[6]": {"settings": "UM729 5.0 μM or higher, 21 days"}, "[7]": {"settings": "UM729 0.25 μM to 1.0 μM in stage 4 media, 21 days"}, "[8]": {"settings": "UM729 0.25 μM to 1.0 μM, 21 days"}, "[9]": {"settings": "UM729 0.25 μM to 1.0 μM, 35 days (UM729 also in stage 5 cultures)"}},
  "note": "Entries after “also recorded” stand apart in the source; their conditions may differ.",
  "data": [
    {"molecule": "COC(=O)c1ccc2c(c1)[nH]c1ncnc(NCCCN3CCCCC3)c12", "note": "[UM729, methyl 4-(3-piperidin-1-ylpropylamino)-9H-pyrimido[4,5-b]indole-7-carboxylate]", "values": [
      {"measurement": "cell proliferation after culture in stage 5 medium (FIG. 12B)", "setting": "iPro T cells [1]", "result": "increased cell proliferation"},
      {"measurement": "viability after culture in stage 5 medium (FIG. 12A)", "setting": "iPro T cells [1]", "result": "higher viability"},
      {"measurement": "viability of cells", "setting": "[2]; 21 days", "result": "maintain viability; also recorded: not to affect the viability"},
      {"measurement": "viability of cells", "setting": "[2]; 35 days", "result": "not to affect the viability; also recorded: maintain viability"},
      {"measurement": "proliferation of total cells", "setting": "[2]; [6]", "result": "reduced or ceases; also recorded: ceased"},
      {"measurement": "viability of total cells", "setting": "[2]; [6]", "result": "reduced or ceases; also recorded: comparably low"},
      {"measurement": "cytotoxic effects", "setting": "[2]; UM729 at concentrations of 5 μM and above", "result": "cytotoxic effects were observed"},
      {"measurement": "expansion of iPro T cells (FIG. 9)", "setting": "iPro T cells [3]", "result": "supported over 42 days; also recorded: greatly enhances the expansion of iProT cells"},
      {"measurement": "differentiation into / yield of CD7+CD5+ iPro T cells (FIG. 4A)", "setting": "[4]; [7]", "result": "promotes differentiation into iProT cells; also recorded: increase the yield"},
      {"measurement": "percentage of CD7+CD5+ iPro T cells (FIG. 4B)", "setting": "[4]; [7]", "result": "enriches the percentage of iProT cells; also recorded: enrich the percentage"},
      {"measurement": "fraction of CD8+CD4+ double positive cells (further differentiation to DP T cells)", "setting": "[4]; UM729 0.25 μM to 1.0 μM in stage 4 medium, 21 days", "result": "decreases the fraction of CD8+CD4+ double positive cells; also recorded: inhibited further differentiation"},
      {"measurement": "lymphoid fraction of the cells", "setting": "[4]; [8]", "result": "increases the lymphoid fraction"},
      {"measurement": "myeloid fraction of the cells (myeloid cellular contamination)", "setting": "[4]; [8]", "result": "reduces the myeloid fraction; also recorded: reduce this cellular contamination in a dose dependent manner"},
      {"measurement": "differentiation into / percentage of CD7+CD5+ iPro T cells (FIG. 7)", "setting": "[4]; [9]", "result": "increasing; also recorded: promotes differentiation into iProT cells"},
      {"measurement": "fraction / development of CD8+CD4+ double positive cells (FIG. 8)", "setting": "[4]; [9]", "result": "inhibited in a dose dependent manner; also recorded: decreases the fraction of CD8+CD4+ double positive cells"},
      {"measurement": "differentiation to CD4+CD8+ double positive T cells after removal of UM729 (FIG. 10)", "setting": "iPro T cells [5]", "result": "found to be removed; also recorded: will become CD4+CD8+ double positive"}
    ]}
  ]
}
